T/C data for ten molecules are collected here from PubChem BioAssay AID248 (DTP/NCI, 2004).

For this assay, the system named is L1210 leukemia ip in BDF1 mice, survival T/C. The experiment in a line: NCI In Vivo Anticancer Drug Screen. Data for tumor model L1210 Leukemia (intraperitoneal) in B6D2F1 (BDF1) mice. As to conditions: endpoint: mean survival time, higher = longer survival. The method in brief: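 In this screen, tumor-bearing mice given compound are compared to those given vehicle, and their survival values are reported as a treated-to-control quotient.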

Setting [1] is: dose: 6.25 mg/kg/injection, schedule: Q04DX003 (ip), vehicle: saline with Tween-80.
Where [2] appears, read: dose: 12.5 mg/kg/injection, schedule: Q04DX003 (ip), vehicle: saline with Tween-80.
Where [3] appears, read: dose: 25.0 mg/kg/injection, schedule: Q04DX003 (ip), vehicle: saline with Tween-80.

Several values for one entry are separate records, joined by “and”; a condition that tells them apart may be missing. Equal values may be shown once. Toxic doses and inconclusive results are not listed.

As to `OC(c1ccccc1)(c1ccccc1)c1ccccc1`, the T/C runs as follows: (dose: 9.0 mg/kg/injection, schedule: Q01DX015 (ip), vehicle: saline) 95 % of control; (dose: 18.0 mg/kg/injection, schedule: Q01DX015 (ip), vehicle: saline) 101 % of control; (dose: 36.0 mg/kg/injection, schedule: Q01DX015 (ip), vehicle: saline) 98 % of control; (dose: 50.0 mg/kg/injection, schedule: Q04DX002 (ip), vehicle: Klucel (hydroxypropylcellulose) (HPC)) 97 % of control; (dose: 72.0 mg/kg/injection, schedule: Q01DX015 (ip), vehicle: saline) 98 % of control; (dose: 100.0 mg/kg/injection, schedule: Q04DX002 (ip), vehicle: Klucel (hydroxypropylcellulose) (HPC)) 95 % of control and 103 % of control. The T/C runs as follows: (dose: 100.0 mg/kg/injection, schedule: Q04DX002 (ip), vehicle: other) 95 % of control; (dose: 143.0 mg/kg/injection, schedule: Q01DX015 (ip), vehicle: saline) 91 % of control; (dose: 200.0 mg/kg/injection, schedule: Q04DX002 (ip), vehicle: Klucel (hydroxypropylcellulose) (HPC)) 94 % of control; (dose: 200.0 mg/kg/injection, schedule: Q04DX002 (ip), vehicle: other) 95 % of control; (dose: 286.0 mg/kg/injection, schedule: Q01DX015 (ip), vehicle: saline) 89 % of control; (dose: 400.0 mg/kg/injection, schedule: Q04DX002 (ip), vehicle: Klucel (hydroxypropylcellulose) (HPC)) 103 % of control and 88 % of control. The T/C is 92 % of control (dose: 400.0 mg/kg/injection, schedule: Q04DX002 (ip), vehicle: other) and 98 % of control (dose: 572.0 mg/kg/injection, schedule: Q01DX015 (ip), vehicle: saline).
Turning to `CN=C(NC)Nc1ccc(NC(=O)c2ccc(C(=O)Nc3ccc(NC(=NC)NC)cc3)cc2)cc1`, the T/C reads like this: (dose: 0.8 mg/kg/injection, schedule: Q01DX Z (ip), vehicle: carboxymethylcellulose (CMC)) 97 % of control; (dose: 1.62 mg/kg/injection, schedule: Q01DX Z (ip), vehicle: carboxymethylcellulose (CMC)) 123 % of control; (dose: 1.76 mg/kg/injection, schedule: Q01DX Z (oral), vehicle: carboxymethylcellulose (CMC)) 115 % of control; (dose: 2.68 mg/kg/injection, schedule: Q01DX Z (oral), vehicle: carboxymethylcellulose (CMC)) 109 % of control; (dose: 3.25 mg/kg/injection, schedule: Q01DX Z (ip), vehicle: carboxymethylcellulose (CMC)) 238 % of control; (dose: 4.0 mg/kg/injection, schedule: Q01DX Z (oral), vehicle: carboxymethylcellulose (CMC)) 117 % of control. In addition, the T/C is 108 % of control (dose: 6.0 mg/kg/injection, schedule: Q01DX Z (oral), vehicle: carboxymethylcellulose (CMC)); 173 % of control and 200 % of control (dose: 6.5 mg/kg/injection, schedule: Q01DX Z (ip), vehicle: carboxymethylcellulose (CMC)); 113 % of control (dose: 8.0 mg/kg/injection, schedule: Q01DX001 (ip), vehicle: carboxymethylcellulose (CMC)); 107 % of control (dose: 8.0 mg/kg/injection, schedule: Q01DX001 (ip), vehicle: other); 122 % of control (dose: 11.0 mg/kg/injection, schedule: Q01DX001 (ip), vehicle: carboxymethylcellulose (CMC)); 110 % of control (dose: 11.0 mg/kg/injection, schedule: Q01DX001 (ip), vehicle: other). The T/C (dose: 25.0 mg/kg/injection, schedule: Q01DX Z (oral), vehicle: carboxymethylcellulose (CMC)) was 103 % of control; the T/C (dose: 26.0 mg/kg/injection, schedule: Q01DX Z (ip), vehicle: carboxymethylcellulose (CMC)) was 104 % of control; the T/C (dose: 39.0 mg/kg/injection, schedule: Q01DX001 (ip), vehicle: other) is 155 % of control; the T/C (dose: 40.0 mg/kg/injection, schedule: Q01DX001 (ip), vehicle: carboxymethylcellulose (CMC)) was 152 % of control; the T/C (dose: 40.0 mg/kg/injection, schedule: Q01DX001 (ip), vehicle: other) was 153 % of control; the T/C (dose: 50.0 mg/kg/injection, schedule: Q01DX Z (oral), vehicle: carboxymethylcellulose (CMC)) is 105 % of control. Also, the T/C is 87 % of control (dose: 53.0 mg/kg/injection, schedule: Q01DX Z (ip), vehicle: carboxymethylcellulose (CMC)); 214 % of control (dose: 60.0 mg/kg/injection, schedule: Q01DX001 (ip), vehicle: carboxymethylcellulose (CMC)); 192 % of control (dose: 60.0 mg/kg/injection, schedule: Q01DX001 (ip), vehicle: other); 234 % of control (dose: 90.0 mg/kg/injection, schedule: Q01DX001 (ip), vehicle: carboxymethylcellulose (CMC)); 236 % of control (dose: 90.0 mg/kg/injection, schedule: Q01DX001 (ip), vehicle: other); 103 % of control (dose: 100.0 mg/kg/injection, schedule: Q01DX Z (oral), vehicle: carboxymethylcellulose (CMC)). For the same molecule, the T/C (dose: 200.0 mg/kg/injection, schedule: Q01DX Z (oral), vehicle: carboxymethylcellulose (CMC)) is 102 % of control.
For the molecule `CN(C)CCCN=Cc1cc(Cl)ccc1O.CN(C)CCCN=Cc1cc(Cl)ccc1O.[Ni+2]`, the T/C is, setting by setting: under setting [1], 92 % of control; under setting [2], 105 % of control; under setting [3], 97 % of control.
Regarding `COC1CCN(CCCn2c3ccccc3c3ccc(C(C)=O)cc32)CC1`, the T/C is 97 % of control (dose: 100.0 mg/kg/injection, schedule: Q01DX001 (ip), vehicle: saline) and 105 % of control (dose: 200.0 mg/kg/injection, schedule: Q01DX001 (ip), vehicle: saline).
With `C#CC(NCCC(C)CC(C)(C)C)C(C)C` (stereo not drawn), the T/C is, setting by setting: (dose: 100.0 mg/kg/injection, schedule: Q04DX003 (ip), vehicle: saline with Tween-80) 103 % of control; (dose: 200.0 mg/kg/injection, schedule: Q04DX003 (ip), vehicle: saline with Tween-80) 90 % of control.
Take `COc1cc(/C=C/C=C/C(=O)N2CCCCC2)ccc1O`: the T/C runs as follows: (dose: 100.0 mg/kg/injection, schedule: Q01DX009 (ip), vehicle: saline with Tween-80) 88 % of control; (dose: 200.0 mg/kg/injection, schedule: Q01DX009 (ip), vehicle: saline with Tween-80) 92 % of control.
Consider `Nc1c(Cl)c(Cl)c2c(c1Cl)/C(=N/O)c1cc(Cl)ccc1-2`, for which the T/C runs as follows: (dose: 100.0 mg/kg/injection, schedule: Q01DX001 (ip), vehicle: carboxymethylcellulose (CMC)) 95 % of control; (dose: 200.0 mg/kg/injection, schedule: Q01DX001 (ip), vehicle: carboxymethylcellulose (CMC)) 95 % of control; (dose: 400.0 mg/kg/injection, schedule: Q01DX001 (ip), vehicle: carboxymethylcellulose (CMC)) 103 % of control.
Turning to `CCCCCCCCC(=O)NCc1ccc(OC)cc1`, the T/C is, setting by setting: (dose: 25.0 mg/kg/injection, schedule: Q01DX009 (ip), vehicle: other) 93 % of control; (dose: 50.0 mg/kg/injection, schedule: Q01DX009 (ip), vehicle: other) 90 % of control; (dose: 100.0 mg/kg/injection, schedule: Q01DX009 (ip), vehicle: other) 100 % of control; (dose: 100.0 mg/kg/injection, schedule: Q04DX003 (ip), vehicle: other) 95 % of control; (dose: 200.0 mg/kg/injection, schedule: Q01DX009 (ip), vehicle: other) 92 % of control; (dose: 200.0 mg/kg/injection, schedule: Q04DX003 (ip), vehicle: other) 90 % of control. Moreover, the T/C (dose: 400.0 mg/kg/injection, schedule: Q01DX009 (ip), vehicle: other) is 91 % of control and the T/C (dose: 400.0 mg/kg/injection, schedule: Q04DX003 (ip), vehicle: other) is 88 % of control.
In the case of `O=c1ccccn1CCc1ccccc1`, the T/C under setting [2] is 95 % of control; the T/C under setting [3] was 101 % of control; the T/C (dose: 50.0 mg/kg/injection, schedule: Q04DX003 (ip), vehicle: saline with Tween-80) is 97 % of control.
Turning to `O=[N+]([O-])/C=C\c1cc2c3c(c1)CCCN3CCC2`, the T/C was 95 % of control (dose: 3.13 mg/kg/injection, schedule: Q01DX001 (ip), vehicle: saline with Tween-80); 98 % of control (dose: 3.13 mg/kg/injection, schedule: Q04DX003 (ip), vehicle: saline with Tween-80); 94 % of control (dose: 6.25 mg/kg/injection, schedule: Q01DX001 (ip), vehicle: saline with Tween-80); 93 % of control under setting [1]; 95 % of control and 93 % of control (dose: 12.5 mg/kg/injection, schedule: Q01DX001 (ip), vehicle: saline with Tween-80); 100 % of control (dose: 12.5 mg/kg/injection, schedule: Q01DX009 (ip), vehicle: saline with Tween-80). Besides, the T/C under setting [2] was 97 % of control; the T/C (dose: 25.0 mg/kg/injection, schedule: Q01DX001 (ip), vehicle: saline with Tween-80) is 93 % of control; the T/C (dose: 25.0 mg/kg/injection, schedule: Q01DX009 (ip), vehicle: saline with Tween-80) is 102 % of control; the T/C (dose: 50.0 mg/kg/injection, schedule: Q01DX001 (ip), vehicle: saline with Tween-80) is 97 % of control; the T/C (dose: 50.0 mg/kg/injection, schedule: Q01DX009 (ip), vehicle: saline with Tween-80) was 97 % of control.
